How the values were obtained:
[1] = Inhibition of HCV genotype 1b isolate BK truncated NS5B polymerase lacking C-terminal 21 amino acids assessed as inhibition of 33P-GTP incorporation using Poly(rC) template by scintillation counting analysis; set-up: species or system Hepatitis C virus (isolate BK)
[2] = system: Hepatitis C virus; test: Antiviral activity against Hepatitis C virus genotype 1b isolate Con1 assessed as inhibition of HCV replicon-encoded Renilla luciferase reporter activity after 72 hrs by cell-based replicon assay; assay type: functional, organism-based, Hepacivirus hominis; conditions: isolate Con1, 72 h

Compound | IC50 [1] | EC50 [2]
CNC(=O)c1c(-c2ccc(F)cc2)nc2sc(-c3cccc(C(=O)NC(C)(C)c4ccccc4)c3)cn12 | < 250 nM | < 250 nM
CNC(=O)c1c(-c2ccc(F)cc2)nc2sc(-c3cccc(C(=O)NC4(c5ccccc5)CC4)c3)cn12 | 1000 nM | < 250 nM
CNC(=O)c1c(-c2ccc(F)cc2)nc2sc(-c3cccc(C(=O)NC4(c5ccccn5)CC4)c3)cn12 | < 250 nM | < 250 nM
CNC(=O)c1c(-c2ccc(F)cc2)nc2sc(-c3cc(C(=O)NC(C)(C)c4ccccc4)c(OC)cc3C)cn12 | < 250 nM | < 250 nM
CNC(=O)c1c(-c2ccc(F)cc2)nc2sc(-c3cc(C(=O)NC(C)(C)c4ccccc4)ccc3OC)cn12 | < 250 nM | < 250 nM

Now from value to compound:

IC50 [1] | EC50 [2] | Compound
< 250 nM | < 250 nM | CNC(=O)c1c(-c2ccc(F)cc2)nc2sc(-c3cc(C(=O)NC(C)(C)c4ccccc4)ccc3C)cn12
1000 nM | < 250 nM | CNC(=O)c1c(-c2ccc(F)cc2)nc2sc(-c3cc(C(=O)NC4(C(C)C)CC4)ccc3C)cn12
1000 nM | < 250 nM | CNC(=O)c1c(-c2ccc(F)cc2)nc2sc(-c3cc(C(=O)NC(C)(C)c4ncccn4)ccc3C)cn12
1000 nM | < 250 nM | CNC(=O)c1c(-c2ccc(F)cc2)nc2sc(-c3cc(C(=O)NC(C)(C)C(=O)OC)ccc3C)cn12
< 250 nM | < 250 nM | CNC(=O)c1c(-c2ccc(F)cc2)nc2sc(-c3cc(C(=O)N[C@@H](C)c4ccccc4)ccc3C)cn12

From ChEMBL document CHEMBL3124768, “Substituted imidazothiazoles as inhibitors of viral polymerase” (ACS Med Chem Lett, 2014)
